Test results published in patent US12660819B2, “Herbicidal derivatives” (SYNGENTA CROP PROTECTION AG, priority 2020, dated 2026).

Assays:
Type in all cases: in vivo
[1] = test system: Ipomoea hederacea (IPOHE); experiment: Pre-emergence Test (glasshouse, percentage damage to the plant); conditions: 1000 g/ha unless otherwise stated, five-point scale
[2] = test system: Amaranthus retoflexus (AMARE); experiment: as above; conditions: 1000 g/ha unless otherwise stated, five-point scale
[3] = test system: Amaranthus retoflexus (AMARE); experiment: Post-emergence Test (glasshouse, percentage damage to the plant); conditions: post-emergence spray, 1000 g/ha unless otherwise stated, evaluated after 13 days
In short: (§1)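 Seeds sown in pots in glasshouse (24/16 °C day/night, 14 h light, 65% humidity), then sprayed with compound at 1000 g/ha unless stated, from acetone/water 50:50 with 0.5% Tween 20. Damage assessed 13 days later on five-point scale (1=0–20% to 5=81–100%).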

[4] = test system: Ipomoea hederacea (IPOHE); experiment: as above; conditions: post-emergence spray, 1000 g/ha unless otherwise stated, evaluated after 13 days
In short: (§2)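 After sowing in standard soil, pots were kept at 24/16 °C (day/night), 14 h light and 65% humidity. They were sprayed at 1000 g/ha unless otherwise stated, watered twice daily, and assessed for percentage damage at 13 days on a 1–5 scale.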

[5] = test system: Echinochloa crus-galli (ECHCG); experiment: as above; conditions: post-emergence spray, 1000 g/ha unless otherwise stated, evaluated after 13 days
In short: as §1

Setaria faberi (SETFA) [6] = experiment: as above; conditions: post-emergence spray, 1000 g/ha unless otherwise stated, evaluated after 13 days
In short: as §2

[7] = test system: Abutilon theophrasti (ABUTH); experiment: as above; conditions: post-emergence spray, 1000 g/ha unless otherwise stated, evaluated after 13 days
In short: as §1

Zea mays (ZEAMX) [8] = experiment: as above; conditions: post-emergence spray, 1000 g/ha unless otherwise stated, evaluated after 13 days
In short: as §2

Zea mays (ZEAMX) [9] = experiment: Pre-emergence Test (glasshouse, percentage damage to the plant); conditions: 1000 g/ha unless otherwise stated, five-point scale
[10] = test system: Abutilon theophrasti (ABUTH); experiment: as above; conditions: 1000 g/ha unless otherwise stated, five-point scale
Setaria faberi (SETFA) [11] = experiment: as above; conditions: 1000 g/ha unless otherwise stated, five-point scale
[12] = test system: Echinochloa crus-galli (ECHCG); experiment: as above; conditions: 1000 g/ha unless otherwise stated, five-point scale

Row | SMILES | percentage damage to the plant, IPOHE [1] | percentage damage to the plant, AMARE [2] | Post-emergence Test AMARE, percentage damage to the plant (five-point scale) [3] | Post-emergence Test IPOHE, percentage damage to the plant (five-point scale) [4] | Post-emergence Test ECHCG, percentage damage to the plant (five-point scale) [5] | Post-emergence Test SETFA, percentage damage to the plant (five-point scale) (Setaria faberi (SETFA) [6]) | Post-emergence Test ABUTH, percentage damage to the plant (five-point scale) [7] | Post-emergence Test ZEAMX, percentage damage to the plant (five-point scale) (Zea mays (ZEAMX) [8]) | percentage damage to the plant, ZEAMX (Zea mays (ZEAMX) [9]) | percentage damage to the plant, ABUTH [10] | percentage damage to the plant, SETFA (Setaria faberi (SETFA) [11]) | percentage damage to the plant, ECHCG [12]
1 | CCn1c(C)c(-c2ccc(Cl)cc2)c(=O)c(C(=O)O)c1-c1ccc(Br)c(F)c1 [Compound 129, 2-(4-bromo-3-fluoro-phenyl)-5-(4-chlorophenyl)-1-ethyl-6-methyl-4-oxo-pyridine-3-carboxylic acid] | 2 (2=21-40%) | 5 (5=81-100%) | 3 (3=41-60%) | 3 (3=41-60%) | 2 (2=21-40%) | 3 (3=41-60%) | 3 (3=41-60%) | 2 (2=21-40%) | 1 (1=0-20%) | 2 (2=21-40%) | 5 (5=81-100%) | 2 (2=21-40%)
2 | CCn1c(C)c(-c2ccc(Cl)cc2)c(=O)c(C(=O)O)c1-c1ccc(F)cc1F [Compound 130, 5-(4-chlorophenyl)-2-(2,4-difluorophenyl)-1-ethyl-6-methyl-4-oxo-pyridine-3-carboxylic acid] | 3 (3=41-60%) | 3 (3=41-60%) | 3 (3=41-60%) | 3 (3=41-60%) | 3 (3=41-60%) | 4 (4=61-80%) | 3 (3=41-60%) | 2 (2=21-40%) | 3 (3=41-60%) | 3 (3=41-60%) | 5 (5=81-100%) | 4 (4=61-80%)
3 | CCn1c(C)c(-c2ccc(Cl)cc2)c(=O)c(C(=O)O)c1-c1ccc(Cl)cn1 [Compound 131, 5-(4-chlorophenyl)-2-(5-chloro-2-pyridyl)-1-ethyl-6-methyl-4-oxo-pyridine-3-carboxylic acid] | 0 | 0 | 1 (1=0-20%) | 1 (1=0-20%) | 0 | 3 (3=41-60%) | 1 (1=0-20%) | 2 (2=21-40%) | 0 | 0 | 0 | 0
4 | CCn1c(-c2ccc(Cl)c(Cl)c2)c(C(=O)O)c(=O)c(-c2ccc(Cl)cc2)c1C(F)(F)F [Compound 132, 5-(4-chlorophenyl)-2-(3,4-dichlorophenyl)-1-ethyl-4-oxo-6-(trifluoromethyl) pyridine-3-carboxylic acid] | 2 (2=21-40%) | 5 (5=81-100%) | 5 (5=81-100%) | 4 (4=61-80%) | 0 | 0 | 3 (3=41-60%) | 1 (1=0-20%) | 0 | 4 (4=61-80%) | 0 | 0
5 | CCOC(=O)c1c(-c2ccc(F)cc2F)n(CC)c(C)c(-c2ccc(Cl)cc2)c1=O [Compound 134, ethyl 5-(4-chlorophenyl)-2-(2,4-difluorophenyl)-1-ethyl-6-methyl-4-oxo-pyridine-3-carboxylate] | 0 | 1 (1=0-20%) | 3 (3=41-60%) | 3 (3=41-60%) | 4 (4=61-80%) | 4 (4=61-80%) | 3 (3=41-60%) | 3 (3=41-60%) | 0 | 1 (1=0-20%) | 0 | 0
6 | CCn1c(C)c(-c2ccccc2)c(=O)c(C(=O)O)c1-c1ccc(F)cc1F [Compound 135, 2-(2,4-difluorophenyl)-1-ethyl-6-methyl-4-oxo-5-phenyl-pyridine-3-carboxylic acid] | 3 (3=41-60%) | 1 (1=0-20%) | 2 (2=21-40%) | 1 (1=0-20%) | 0 | 0 | 1 (1=0-20%) | 0 | 0 | 3 (3=41-60%) | 5 (5=81-100%) | 2 (2=21-40%)
7 | CCn1c(C)c(-c2ccc(OC(F)(F)F)cc2)c(=O)c(C(=O)O)c1-c1ccc(F)cc1F [Compound 136, 2-(2,4-difluorophenyl)-1-ethyl-6-methyl-4-oxo-5-[4-(trifluoromethoxy)phenyl]pyridine-3-carboxylic acid] | 2 (2=21-40%) | 2 (2=21-40%) | 3 (3=41-60%) | 2 (2=21-40%) | 3 (3=41-60%) | 4 (4=61-80%) | 3 (3=41-60%) | 1 (1=0-20%) | 1 (1=0-20%) | 3 (3=41-60%) | 5 (5=81-100%) | 3 (3=41-60%)
8 | CCOC(=O)c1c(-c2ccc(Br)cc2F)n(CC)c(C)c(-c2ccc(Cl)cc2)c1=O [Compound 137, ethyl 2-(4-bromo-2-fluoro-phenyl)-5-(4-chlorophenyl)-1-ethyl-6-methyl-4-oxo-pyridine-3-carboxylate] | 0 | 5 (5=81-100%) | 3 (3=41-60%) | 3 (3=41-60%) | 4 (4=61-80%) | 3 (3=41-60%) | 3 (3=41-60%) | 2 (2=21-40%) | 0 | 0 | 1 (1=0-20%) | 0
9 | CCn1c(C)c(-c2ccc(Cl)cc2)c(=O)c(C(=O)O)c1-c1ccc(Cl)cc1 [Compound 138, 2,5-bis(4-chlorophenyl)-1-ethyl-6-methyl-4-oxo-pyridine-3-carboxylic acid] | 1 (1=0-20%) | 5 (5=81-100%) | 1 (1=0-20%) | 1 (1=0-20%) | 2 (2=21-40%) | 3 (3=41-60%) | 3 (3=41-60%) | 0 | 1 (1=0-20%) | 3 (3=41-60%) | 5 (5=81-100%) | 3 (3=41-60%)
10 | CCOC(=O)c1c(-c2ccc(Br)c(F)c2)n(CC)c(C)c(-c2ccc(Cl)cc2)c1=O [Compound 139, ethyl 2-(4-bromo-3-fluoro-phenyl)-5-(4-chlorophenyl)-1-ethyl-6-methyl-4-oxo-pyridine-3-carboxylate] | 0 | 0 | 3 (3=41-60%) | 1 (1=0-20%) | 2 (2=21-40%) | 3 (3=41-60%) | 4 (4=61-80%) | 2 (2=21-40%) | 0 | 0 | 0 | 0
